Source: the supplement of paper PMC10307832

Columns and labels:
Assay in all cases: relative viability (nuclei count vs DMSO), 5 days (fraction); higher = more cells survive
[1] = compound: Cn1cncc1[C@@](N)(c1ccc(Cl)cc1)c1ccc2c(c1)c(-c1cccc(Cl)c1)cc(=O)n2C [Tipifarnib] + O=C(CCCCCCC(=O)Nc1ccccc1)NO [Vorinostat] (partner 1 µM)
Procedure, shortened: (§1)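 Lung cancer cell lines in 1536-well plates got either a single drug or a fixed anchor-drug dose together with five library-drug doses (not always all listed) in √10 steps, by pin tool, on the day after seeding. Nuclei were counted after 5 days, and relative viability is the treated-to-vehicle ratio of nuclei counts. Values are medians of duplicate plates.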

[2] = compound: Cn1cncc1[C@@](N)(c1ccc(Cl)cc1)c1ccc2c(c1)c(-c1cccc(Cl)c1)cc(=O)n2C [Tipifarnib] + Nc1nc2[nH]cc(CCc3ccc(C(=O)N[C@@H](CCC(=O)O)C(=O)O)cc3)c2c(=O)[nH]1 [Pemetrexed] (partner 0.2 µM)
Procedure, shortened: as §1

[3] = compound: Cn1cncc1[C@@](N)(c1ccc(Cl)cc1)c1ccc2c(c1)c(-c1cccc(Cl)c1)cc(=O)n2C [Tipifarnib] + Cc1nc(Nc2ncc(C(=O)Nc3c(C)cccc3Cl)s2)cc(N2CCN(CCO)CC2)n1 [Dasatinib] (partner 0.075 µM)
Procedure, shortened: as §1

[4] = compound: Cn1cncc1[C@@](N)(c1ccc(Cl)cc1)c1ccc2c(c1)c(-c1cccc(Cl)c1)cc(=O)n2C [Tipifarnib] + CC(=O)c1c(C)c2cnc(Nc3ccc(N4CCNCC4)cn3)nc2n(C2CCCC2)c1=O [Palbociclib] (partner 0.5 µM)
Procedure, shortened: as §1

Cell Line	relative viability ([1]; first compound 0.01 µM)	relative viability ([1]; first compound 0.03162 µM)	relative viability ([1]; first compound 0.1 µM)	relative viability ([1]; first compound 0.3162 µM)	relative viability ([1]; first compound 1 µM)	relative viability ([2]; first compound 0.01 µM)	relative viability ([2]; first compound 0.03162 µM)	relative viability ([2]; first compound 0.1 µM)	relative viability ([2]; first compound 0.3162 µM)	relative viability ([2]; first compound 1 µM)	relative viability ([3]; first compound 0.01 µM)	relative viability ([3]; first compound 0.03162 µM)	relative viability ([3]; first compound 0.1 µM)	relative viability ([3]; first compound 0.3162 µM)	relative viability ([3]; first compound 1 µM)	relative viability ([4]; first compound 0.01 µM)	relative viability ([4]; first compound 0.03162 µM)	relative viability ([4]; first compound 0.1 µM)	relative viability ([4]; first compound 0.3162 µM)	relative viability ([4]; first compound 1 µM)
NCI-H2087	0.668	0.363	0.292	0.248	0.222	0.58	0.569	0.383	0.326	0.373	0.764	0.405	0.289	0.264	0.21	0.212	0.233	0.23	0.11	0.193
NCI-H2126	0.797	0.752	0.763	0.768	0.409	0.666	0.691	0.676	0.642	0.503	0.652	0.673	0.648	0.578	0.391	0.353	0.332	0.345	0.35	0.354
NCI-H2170	0.831	0.774	0.697	0.637	0.335	0.257	0.291	0.269	0.243	0.242	0.688	0.805	0.601	0.636	0.462	0.362	0.377	0.305	0.246	0.27
NCI-H2228	0.398	0.453	0.493	0.314	0.3	0.364	0.34	0.361	0.296	0.333	0.531	0.52	0.456	0.266	0.184	0.971	0.599	0.353	0.551	0.29
NCI-H2342	0.847	0.746	0.597	0.73	0.516	0.906	0.776	0.71	0.64	0.509	0.332	0.337	0.272	0.331	0.267	0.535	0.493	0.555	0.499	0.488
NCI-H2347	0.547	0.515	0.497	0.431	0.476	0.455	0.446	0.446	0.406	0.398	0.278	0.293	0.256	0.303	0.277	0.361	0.388	0.398	0.381	0.361
NCI-H2405	1.12	0.967	0.817	0.881	0.547	1.03	1.07	0.964	0.967	0.866	0.188	0.208	0.219	0.228	0.217	0.562	0.517	0.525	0.492	0.517
NCI-H3122	1.12	0.962	0.709	0.538	0.219	0.205	0.204	0.199	0.188	0.188	0.63	0.456	0.644	0.327	0.138	0.193	0.189	0.196	0.179	0.14
